Measurements published in patent publication US20150297609A1, “STERILE OPHTHALMIC PHARMACEUTICAL SUSPENSIONS” (SENTISS PHARMA PVT. LTD., priority 2012, published 2015).

Experiment: Particle size analysis of brinzolamide precipitated after autoclaving
Assay type: physicochemical
Settings: precipitated during cooling after autoclaving, before size reduction
Description: The precipitated brinzolamide is preferably in partially amorphous or crystalline form, preferably in crystalline form, more preferably in highly crystalline form. The particles are preferably in the form of fine particles. More preferably the fine particulate has an average particle size of less than 100 μm, more preferably less than 50 μm. The particle size can be reduced further by sonication to an average particle size less than […], more preferably less than 30 pm or 20 pm. Any method can be used to determine particle size distribution. One preferred method is to use a light scattering or Coulter counter method. It is preferred that 90% of the particles (D(0.9)) be less than 15 pm, more preferably, D(0.9) is in the range of 10-15 pm. It is preferred that 100% of the particles (D(1)) be less than 30 pm, more preferably less than about 20 pm.
During autoclaving due to high temperature and pressure, brinzolamide goes in solution. Upon completion of the autoclave cycle, during cooling, brinzolamide starts precipitating out. Brinzolamide forms needle shaped crystals of 1000 to 3000 microns. These needle shaped crystals of brinzolamide are further reduced in fine crystalline form to be used in the present invention formulation and the reduced particle size is as per table 3.
This particle size is further reduced to […] through rapid cooling with stirring. […]

## CCN[C@H]1CN(CCCOC)S(=O)(=O)c2sc(S(N)(=O)=O)cc21 [API, (R)-(+)-4-ethylamino-2-(3-methoxypropyl)-3,4-dihydro-2H-thieno[3,2-e]-1,2-thiazine-6-sulfonamide-1,1-dioxide]
  size of needle shaped crystals: 1000 to 3000 microns
